Test results taken from ChEMBL document CHEMBL3508693.

Tests used:
Format in all cases: cell-free
Rattus norvegicus = organism: Rattus norvegicus; experiment: In vitro plasma protein binding (reported as Fu[%]) of 10,000 ng.ml-1 [14C] aliskiren hemifumarate in pooled plasma samples of rat; set-up: conc 10000 ng.ml-1, sampling time 1 h; details: WI(Glx/BRL/Han)BR, tested as the 14C-labelled form, at 10000 ng/mL
Callithrix jacchus = organism: Callithrix jacchus; experiment: In vitro plasma protein binding (reported as Fu[%]) of 10,000 ng.ml-1 [14C] aliskiren hemifumarate in pooled plasma samples of marmoset; set-up: conc 10000 ng.ml-1, sampling time 1 h; details: tested as the 14C-labelled form, at 10000 ng/mL
Homo sapiens [1] = organism: Homo sapiens; experiment: (§1) In vitro plasma protein binding (reported as Fu[%]) of 500 ng.ml-1 [14C] aliskiren hemifumarate in human; set-up: conc 500 ng.ml-1, sampling time 1 h; details: tested as the 14C-labelled form, at 500 ng/mL
Homo sapiens [2] = organism: Homo sapiens; experiment: as §1; set-up: conc 500 ng.ml-1, sampling time 1 h; details: tested as the 14C-labelled form, at 500 ng/mL; remark: listed apart in the source
Mus musculus = organism: Mus musculus; experiment: In vitro plasma protein binding (reported as Fu[%]) of 10,000 ng.ml-1 [14C] aliskiren hemifumarate in pooled plasma samples of mouse; set-up: conc 10000 ng.ml-1, sampling time 1 h; details: CD-1(ICR)BR, tested as the 14C-labelled form, at 10000 ng/mL
Oryctolagus cuniculus = organism: Oryctolagus cuniculus; experiment: In vitro plasma protein binding (reported as Fu[%]) of 10,000 ng.ml-1 [14C] aliskiren hemifumarate in pooled plasma samples of rabbit; set-up: conc 10000 ng.ml-1, sampling time 1 h; details: New Zealand White, tested as the 14C-labelled form, at 10000 ng/mL
Homo sapiens [3] = organism: Homo sapiens; experiment: as §1; set-up: conc 500 ng.ml-1, sampling time 1 h; details: tested as the 14C-labelled form, at 500 ng/mL; remark: listed apart in the source

Compound: COCCCOc1cc(C[C@@H](C[C@H](N)[C@@H](O)C[C@H](C(=O)NCC(C)(C)C(N)=O)C(C)C)C(C)C)ccc1OC
- Fu (Rattus norvegicus): 38.3%
- Fu (Callithrix jacchus): 8.1%
- Fu (Homo sapiens [1]): 47.3%
- Fu (Homo sapiens [2]): 49.8%
- Fu (Mus musculus): 28.8%
- Fu (Oryctolagus cuniculus): 42.5%
- Fu (Homo sapiens [3]): 51.4%
